Molecular target: T1, human androgen receptor (Homo sapiens, UniProt P10275)
T1 construct: expressed in transfected cells; host or cells: Chinese hamster ovary (CHO) cells, line CHO-AR-pMMTV-LUC 1G12-A5-CA
T1 sequence (P10275 1-920): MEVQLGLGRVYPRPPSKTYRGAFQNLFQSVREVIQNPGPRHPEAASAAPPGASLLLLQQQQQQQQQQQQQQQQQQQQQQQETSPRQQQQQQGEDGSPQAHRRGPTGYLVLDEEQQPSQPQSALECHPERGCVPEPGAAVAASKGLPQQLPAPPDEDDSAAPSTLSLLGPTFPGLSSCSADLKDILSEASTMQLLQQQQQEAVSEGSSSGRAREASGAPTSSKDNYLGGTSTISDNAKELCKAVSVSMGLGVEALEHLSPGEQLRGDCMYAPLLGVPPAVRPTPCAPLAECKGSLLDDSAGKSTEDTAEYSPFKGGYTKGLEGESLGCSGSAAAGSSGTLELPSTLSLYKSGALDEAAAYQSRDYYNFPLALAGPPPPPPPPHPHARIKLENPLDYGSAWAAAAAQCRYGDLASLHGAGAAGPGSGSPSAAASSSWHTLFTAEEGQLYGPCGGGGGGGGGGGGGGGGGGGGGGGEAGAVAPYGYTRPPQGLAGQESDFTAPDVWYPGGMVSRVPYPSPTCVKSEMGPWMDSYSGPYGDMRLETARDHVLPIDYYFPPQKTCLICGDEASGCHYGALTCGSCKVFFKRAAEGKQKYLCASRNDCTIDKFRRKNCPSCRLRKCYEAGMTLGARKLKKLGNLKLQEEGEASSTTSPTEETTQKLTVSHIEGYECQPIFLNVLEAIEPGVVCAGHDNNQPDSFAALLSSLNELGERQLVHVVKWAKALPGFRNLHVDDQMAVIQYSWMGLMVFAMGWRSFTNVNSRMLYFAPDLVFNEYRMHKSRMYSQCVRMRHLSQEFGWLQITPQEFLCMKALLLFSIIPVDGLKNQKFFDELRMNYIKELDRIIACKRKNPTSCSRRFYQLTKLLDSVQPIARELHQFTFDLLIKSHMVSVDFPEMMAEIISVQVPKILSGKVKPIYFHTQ
Test: Androgenic activity (potency) in vitro bioassay, CHO-AR-pMMTV-LUC 1G12-A5-CA cells, luciferase reporter
Format: cell-based
Conditions: CHO cells stably transfected with human androgen receptor and MMTV-luciferase reporter; in the presence of 0.1 μmol/l onapristone; potencies expressed as percentage of DHT activity (maximal efficacy with 100 nmol/l DHT set as 100%)
Protocol: The androgenic activity (potency) of the compounds of the invention was determined in an in vitro bioassay of Chinese hamster ovary (CHO) cells stably transfected with the human androgen receptor expression plasmid and a reporter plasmid in which the MMTV promoter is linked to the luciferase reporter gene. The cell line CHO-AR-pMMTV-LUC 1G12-A5-CA is described in Schoonen et al. (J. Steroid Biochem. Molec. Biol. 2002; 74: 213-222). The androgen receptor activity of compounds was determined in the presence of 0.1 μmol/l onapristone. The maximal efficacy in the presence of 100 nmol/1 DHT was set as 100%. The potencies are expressed as percentage of DHT activity.

Row | Compound | Potency (%)
1 | CCNc1ccc2c(Sc3ccccc3[N+](=O)[O-])cn(Cc3ccccn3)c2c1 [Example 19d, Ethyl-[3-(2-nitro-phenylsulfanyl)-1-pyridin-2-ylmethyl-1H-indol-6-yl]-amine] | 6.7
2 | CN(C)c1ccc2c(Sc3ccccc3[N+](=O)[O-])cn(Cc3cccnc3)c2c1 [Example 19e, Dimethyl-[3-(2-nitro-phenylsulfanyl)-1-pyridin-3-ylmethyl-1H-indol-6-yl]-amine] | 2.6
3 | N#CCNc1ccc2c(Sc3ccccc3[N+](=O)[O-])cn(Cc3cc(F)cc(F)c3)c2c1 [Example 20, [1-(3,5-Difluoro-benzyl)-3-(2-nitro-phenylsulfanyl)-1H-indol-6-ylamino]-acetonitrile] | 40.2
4 | CC(=O)CNc1ccc2c(Sc3ccccc3[N+](=O)[O-])cn(Cc3cc(F)cc(F)c3)c2c1 [Example 21a, 1-[1-(3,5-Difluoro-benzyl)-3-(2-nitro-phenylsulfanyl)-1H-indol-6-ylamino]-propan-2-one] | 7.2
5 | O=[N+]([O-])c1ccccc1Sc1cn(Cc2cc(F)cc(F)c2)c2cc(NCCO)ccc12 [Example 21b, 2-[1-(3,5-Difluoro-benzyl)-3-(2-nitro-phenylsulfanyl)-1H-indol-6-ylamino]-ethanol] | 7.9
6 | COCCNc1ccc2c(Sc3ccccc3[N+](=O)[O-])cn(Cc3cc(F)cc(F)c3)c2c1 [Example 21c] | 11.4
7 | N#CCNc1ccc2c(Sc3ccccc3[N+](=O)[O-])cn(Cc3ccccn3)c2c1 [Example 21d, [3-(2-Nitro-phenylsulfanyl)-1-pyridin-2-ylmethyl-1H-indol-6-ylamino]-acetonitrile] | 6.7
8 | COCCNc1ccc2c(Sc3ccccc3[N+](=O)[O-])cn(Cc3ccccn3)c2c1 [Example 21e, (2-Methoxy-ethyl)-[3-(2-nitro-phenylsulfanyl)-1-pyridin-2-ylmethyl-1H-indol-6-yl]-amine] | 8.3
9 | COCCNc1ccc2c(Sc3ccccc3[N+](=O)[O-])cn(Cc3cccnc3)c2c1 [Example 21f, (2-Methoxy-ethyl)-[3-(2-nitro-phenylsulfanyl)-1-pyridin-3-ylmethyl-1H-indol-6-yl]-amine] | 20.9
10 | N#CCNc1ccc2c(Sc3ccccc3C#N)cn(Cc3cc(F)cc(F)c3)c2c1 [Example 21g, 2-[6-(Cyanomethyl-amino)-1-(3,5-difluoro-benzyl)-1H-indol-3-ylsulfanyl]-benzonitrile] | 9.2
11 | N#Cc1ccccc1Sc1cn(Cc2cc(F)cc(F)c2)c2cc(NCCO)ccc12 [Example 21h] | 2.9
12 | COCCNc1ccc2c(Sc3ccccc3C#N)cn(Cc3cc(F)cc(F)c3)c2c1 [Example 21i] | 6.0
13 | N#CCNc1ccc2c(Sc3ccccc3[N+](=O)[O-])cn(Cc3cccnc3)c2c1 [Example 21j, [3-(2-Nitro-phenylsulfanyl)-1-pyridin-3-ylmethyl-1H-indol-6-ylamino]-acetonitrile] | 1.0
14 | O=[N+]([O-])c1ccccc1Sc1cn(Cc2cc(F)cc(F)c2)c2cc(NCC(F)(F)F)ccc12 [Example 21k, [1 (3,5-Difluoro-benzyl)-3-(2-nitro-phenylsulfanyl)-1H-indol-6-yl]-(2,2,2-trifluoroethyl)-amine] | 0.6
15 | CCCNc1ccc2c(Sc3ccccc3[N+](=O)[O-])cn(Cc3cc(F)cc(F)c3)c2c1 [Example 22a, [1-(3,5-Difluoro-benzyl)-3-(2-nitro-phenylsulfanyl)-1H-indol-6-yl]-propyl-amine] | 2.4
16 | C#CCNc1ccc2c(Sc3ccccc3[N+](=O)[O-])cn(Cc3cc(F)cc(F)c3)c2c1 [Example 22b, [1-(3,5-Difluoro-benzyl)-3-(2-nitro-phenylsulfanyl)-1H-indol-6-yl]-prop-2-ynyl-amine] | 27.1
17 | C=C(C)CNc1ccc2c(Sc3ccccc3[N+](=O)[O-])cn(Cc3cc(F)cc(F)c3)c2c1 [Example 22c] | 1.2
18 | O=[N+]([O-])c1ccccc1Sc1cn(Cc2cc(F)cc(F)c2)c2cc(NCC3CC3)ccc12 [Example 22d] | 0.9
19 | COC(=O)CNc1ccc2c(Sc3ccccc3[N+](=O)[O-])cn(Cc3cc(F)cc(F)c3)c2c1 [Example 22e] | 4.0
20 | Methyl-[1-(3-meth 1-benzyl-3-(2-nitro-phenylsulfanyl)-1H-indol-6-yl]-amine [Example 5o] | 1.6

Reference: patent publication US7812036B2, “Androgens” (N.V. Organon, priority 2004, dated 2010)
